From the supplement of paper PMC5908809

How the values were obtained:
[1] = system: normal NK cells expanded with K562-aAPC; experiment: percent inhibition of viability; higher = more inhibition; conditions: 72 h, IL-2 2.5 ng/mL
Method: (§1)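 Drug sensitivity and resistance testing on K562-aAPC-expanded normal NK cells: 5 concentrations (10-fold steps over a 10,000-fold range), 72 h at 37 °C, viability by CellTiter-Glo normalised to DMSO and benzethonium chloride controls; DSS from the fitted curve.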

[2] = system: KAI3 (IL-2 2.5 ng/mL); experiment: as above; conditions: 72 h
[3] = system: NK-92 (IL-2 2.5 ng/mL); experiment: as above; conditions: 72 h
[4] = system: DERL-7 (IL-2 2.5 ng/mL); experiment: as above; conditions: 72 h
[5] = system: normal primary NK cells, pool 1 (3 donors), resting (IL-2 0 ng/mL); experiment: as above; conditions: 72 h
[6] = system: NKL (IL-2 2.5 ng/mL); experiment: as above; conditions: 72 h
[7] = system: normal primary NK cells, pool 3 (3 donors) (IL-2 2.5 ng/mL); experiment: as above; conditions: 72 h
[8] = system: SNK-6 (IL-2 2.5 ng/mL); experiment: as above; conditions: 72 h
[9] = system: normal primary NK cells, pool 2 (3 donors) (IL-2 2.5 ng/mL); experiment: as above; conditions: 72 h
[10] = system: normal primary NK cells, pool 1 (3 donors) (IL-2 2.5 ng/mL); experiment: as above; conditions: 72 h
[11] = system: YT (IL-2 2.5 ng/mL); experiment: as above; conditions: 72 h
[12] = system: IMC-1 (IL-2 20 ng/mL); experiment: as above; conditions: 72 h
[13] = system: KHYG-1 (IL-2 2.5 ng/mL); experiment: as above; conditions: 72 h
[14] = system: NK-YS (IL-2 2.5 ng/mL); experiment: as above; conditions: 72 h
[15] = system: KAI3 (IL-2 2.5 ng/mL); experiment: drug sensitivity score (DSS) (DSS units); higher = more sensitive; extreme values may be limits of the assay; conditions: 72 h
[16] = system: NK-92 (IL-2 2.5 ng/mL); experiment: as above; conditions: 72 h
[17] = system: DERL-7 (IL-2 2.5 ng/mL); experiment: as above; conditions: 72 h
[18] = system: normal primary NK cells, pool 1 (3 donors), resting (IL-2 0 ng/mL); experiment: as above; conditions: 72 h
[19] = system: NKL (IL-2 2.5 ng/mL); experiment: as above; conditions: 72 h
[20] = system: normal primary NK cells, pool 3 (3 donors) (IL-2 2.5 ng/mL); experiment: as above; conditions: 72 h
[21] = system: SNK-6 (IL-2 2.5 ng/mL); experiment: as above; conditions: 72 h
[22] = system: normal primary NK cells, pool 2 (3 donors) (IL-2 2.5 ng/mL); experiment: as above; conditions: 72 h
[23] = system: normal primary NK cells, pool 1 (3 donors) (IL-2 2.5 ng/mL); experiment: as above; conditions: 72 h
[24] = system: YT (IL-2 2.5 ng/mL); experiment: as above; conditions: 72 h
[25] = system: IMC-1 (IL-2 20 ng/mL); experiment: as above; conditions: 72 h
[26] = system: KHYG-1 (IL-2 2.5 ng/mL); experiment: as above; conditions: 72 h
[27] = system: NK-YS (IL-2 2.5 ng/mL); experiment: as above; conditions: 72 h
[28] = system: normal NK cells expanded with K562-aAPC; experiment: as above; conditions: 72 h; IL-2 2.5 ng/mL
Method: as §1

OC[C@H]1O[C@@H](n2cnc3c2N=CNC[C@H]3O)C[C@@H]1O [Pentostatin] (max concentration tested 10000 nM)
percent inhibition of viability [%]
Conditions | 1 nM | 10 nM | 100 nM | 1000 nM | 10000 nM
[1] | 0.75 | -2.98 | 3.38 | 6.95 | 8.99
[2] | -10.6 | -16.4 | -2.67 | -7.59 | -0.36
[3] | -4 | -10.1 | -2.52 | -6.44 | 6.47
[4] | -9.03 | 2.32 | -10.5 | -5.23 | -4.31
[5] | -7.98 | 1.6 | -13.1 | -28.3 | -7.61
[6] | -20.9 | -21.1 | -17.4 | -6.93 | -7.04
[7] | -11.3 | -12.5 | -7.39 | -4.5 | 11.5
[8] | 4.13 | 3.89 | 8.33 | 34 | 20.9
[9] | -9.21 | -12.2 | -5.88 | -13.3 | 1.05
[10] | -3.11 | 3.31 | -8.32 | -5.87 | 1.1
[11] | -4.24 | -0.68 | 3.36 | 4.3 | 8.72
[12] | 0.7 | -6.1 | 1.22 | 0.79 | 10.6
[13] | -3.74 | -3.32 | 0.86 | 5.07 | 5.26
[14] | -2.76 | -5.13 | -3.05 | 6.9 | 9.33

Conditions | drug sensitivity score
[15] | 0
[16] | 0
[17] | 0
[18] | 0
[19] | 0
[20] | 0
[21] | 7.04
[22] | 0
[23] | 0
[24] | 0
[25] | 0
[26] | 0
[27] | 0
[28] | 0

CN(C)c1cc2c(cc1Sc1nc3c(N)nccc3n1CCNCC(C)(C)C)OCO2 [CUDC-305] (max concentration tested 10000 nM)
percent inhibition of viability [%]
Conditions | 1 nM | 10 nM | 100 nM | 1000 nM | 10000 nM
[1] | -9.36 | -5.57 | 18.3 | 98.9 | 99.5
[2] | -0.9 | -0.19 | 41.5 | 108 | 108
[3] | -12 | -2.97 | 13.8 | 103 | 107
[4] | -1.72 | -0.9 | 22.4 | 101 | 101
[5] | -0.67 | 17.6 | 27.6 | 43.1 | 69.2
[6] | -12.3 | -13.6 | 3.23 | 97.1 | 95.2
[7] | -11.7 | 2.98 | 12 | 77.3 | 88.5
[8] | -24.7 | -25.3 | -1.59 | 89.5 | 89.3
[9] | -9.1 | 7.74 | 23 | 77.7 | 86.7
[10] | 3.05 | 11.3 | 19.7 | 84.3 | 92.8
[11] | -8.17 | -8.94 | 5.06 | 96.3 | 102
[12] | -5.61 | -0.06 | 1.88 | 100 | 101
[13] | -1.89 | -3.69 | 6.61 | 107 | 111
[14] | -4.26 | -6.26 | 23.7 | 108 | 109

Conditions | drug sensitivity score
[15] | 23.5
[16] | 20.4
[17] | 21.5
[18] | 12.7
[19] | 17.9
[20] | 15.8
[21] | 16
[22] | 17
[23] | 17.8
[24] | 18.2
[25] | 18.2
[26] | 19.4
[27] | 21.7
[28] | 20.9

COc1cc(F)c(F)c(Nc2ccc(I)cc2F)c1NS(=O)(=O)C1(C[C@H](O)CO)CC1 [Refametinib] (max concentration tested 10000 nM)
percent inhibition of viability [%]
Conditions | 1 nM | 10 nM | 100 nM | 1000 nM | 10000 nM
[1] | -5.33 | -11.3 | -6.84 | 4.3 | 23.1
[2] | -4.59 | 6.78 | 18.3 | 26.5 | 39.6
[3] | -0.27 | -1.5 | -9.05 | 19.5 | 37.8
[4] | 6.17 | 13 | 30.2 | 53.8 | 78
[5] | 0.56 | 9.23 | 10.7 | 12.4 | 49.4
[6] | -2.52 | 16.4 | 39.5 | 74.4 | 82.3
[7] | -4.86 | 5.75 | -0.36 | 3.44 | 28.4
[8] | 2.1 | -35.6 | -25 | -46.3 | -9.38
[9] | 0 | 6.56 | 8.63 | 16.2 | 40.9
[10] | -10.8 | 15.4 | 14 | 11.4 | 29.1
[11] | 1.91 | 1.53 | 7.51 | 17.5 | 44.4
[12] | -4.32 | -6.37 | -1.56 | 6.1 | 35.3
[13] | -5.12 | 4.63 | 33.5 | 62.9 | 76.7
[14] | -4.96 | -5.01 | 5 | 14.1 | 31.5

Conditions | drug sensitivity score
[15] | 6.75
[16] | 4.28
[17] | 14.7
[18] | 4.14
[19] | 19.1
[20] | 1.74
[21] | 0
[22] | 3.81
[23] | 3.32
[24] | 4.03
[25] | 2.67
[26] | 16
[27] | 2.69
[28] | 1.44

CCS(=O)(=O)c1cccc(-c2cc(C(=O)NC3CCN(C)CC3)c(C)c3[nH]c4ncc(C)cc4c23)c1 [TAK-901] (max concentration tested 1000 nM)
percent inhibition of viability [%]
Conditions | 0.1 nM | 1 nM | 10 nM | 100 nM | 1000 nM
[1] | -4.46 | -2.36 | -2.68 | 2.78 | 47.6
[2] | 1.13 | 2.62 | 9.88 | 32.9 | 77.5
[3] | -8.6 | -16.9 | -4.19 | -5.4 | 6
[4] | -2.6 | 5.56 | -0.1 | 67.8 | 79.7
[5] | -2.04 | -13.9 | 9.75 | -5.23 | 39.3
[6] | -9.65 | -9.74 | -13.2 | 31.8 | 67.5
[7] | 1.04 | -10.9 | -10.6 | -10.1 | 8.18
[8] | 6.55 | 11.7 | 6.25 | 25.7 | 70.1
[9] | -4.84 | -2.84 | -10.5 | -3.4 | 24.9
[10] | -7.61 | -7.94 | 3.96 | 1 | 52
[11] | 0.92 | -0.2 | 0.62 | 11.9 | 28.7
[12] | -1.14 | 1.82 | -2.81 | 39.8 | 96.9
[13] | -0.42 | -4.46 | -1.82 | 9.29 | 69
[14] | -2.75 | -0.83 | 5.54 | 65.6 | 70.5

Conditions | drug sensitivity score
[15] | 8.03
[16] | 0
[17] | 12.5
[18] | 1.6
[19] | 7.8
[20] | 0
[21] | 6.86
[22] | 0.75
[23] | 2.88
[24] | 2.64
[25] | 10.6
[26] | 5.36
[27] | 12.9
[28] | 2.88

O=C1NC(=O)/C(=C/c2ccc3nccc(-c4ccncc4)c3c2)S1 (max concentration tested 10000 nM)
percent inhibition of viability [%]
Conditions | 1 nM | 10 nM | 100 nM | 1000 nM | 10000 nM
[1] | -7.65 | -6.22 | -2.48 | 25.2 | 68.2
[2] | 4.6 | -4.46 | 10.8 | 33.3 | 66
[3] | -4.72 | -6.37 | -0.26 | 24.6 | 63.5
[4] | -4.4 | 4.35 | 9.03 | 60.2 | 88.2
[5] | 7.14 | 23.7 | 24.7 | 33.3 | 68.1
[6] | -16.6 | -12.9 | 3.48 | 52.1 | 76.4
[7] | -4.27 | 3.99 | 9.93 | 15.9 | 69.4
[8] | 7.06 | 2.93 | 5.43 | 30.6 | 67.5
[9] | -5.69 | 2.64 | 12.6 | 32.4 | 82.4
[10] | -6.7 | 13.9 | 10.7 | 28.1 | 58.9
[11] | -1.99 | -2.62 | 7.22 | 58.7 | 82.4
[12] | -1.41 | -1.05 | 0.35 | -13.3 | 36.1
[13] | -3.03 | -2.9 | 7.97 | 47.8 | 78.5
[14] | -5.37 | -5.14 | 5.36 | 42.1 | 74.2

Conditions | drug sensitivity score
[15] | 7.69
[16] | 6.85
[17] | 12.7
[18] | 14.1
[19] | 10.6
[20] | 6.25
[21] | 7.19
[22] | 8.23
[23] | 6.93
[24] | 12.1
[25] | 1.19
[26] | 10.3
[27] | 9.16
[28] | 7.25
